Data from patent publication US9656971B2, “COMT inhibitors” (Hoffmann-La Roche Inc., priority 2012, dated 2017).
Where a name gives a salt, the structure may show the parent alone. Read-outs that look alike come from different tables or passages of the source.

Target: T1, Rec. human COMT (Homo sapiens, UniProt P21964)
T1 sequence (P21964 1-271): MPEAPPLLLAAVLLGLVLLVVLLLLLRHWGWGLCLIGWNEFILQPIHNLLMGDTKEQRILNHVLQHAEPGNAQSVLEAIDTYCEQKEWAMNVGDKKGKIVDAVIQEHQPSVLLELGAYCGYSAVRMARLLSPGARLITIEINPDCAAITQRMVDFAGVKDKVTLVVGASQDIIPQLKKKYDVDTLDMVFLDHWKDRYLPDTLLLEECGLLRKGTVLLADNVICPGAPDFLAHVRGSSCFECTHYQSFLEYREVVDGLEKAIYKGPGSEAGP
Assay: COMT-Fluorescence Assay
Assay type: biochemical
Details: rec. human COMT 25 nM, 4-Nitrocatechol-Alexa488 200 nM, SAM 500 nM
Description: This intramolecular interaction is disturbed if the 4-Nitrocatechol is methylated. […] This increase of fluorescence intensity can be followed in a kinetic measurement. The slope in the linear range of the kinetic is calculated. An inhibitor compound decreases the slope.
Signal [rfu/min]=(rfu(end-point)−rfu(startpoint))/incubation_time_#2

[1] = COMT-fluorescence assay, read-out: IC50

SMILES	IC50 [1]	IC50 (IC50, COMT-fluorescence assay)
O=c1[nH]cnc2c(O)cc(-c3ccccc3Oc3ccccc3)cc12 [Example 222, 8-Hydroxy-6-(2-phenoxyphenyl)quinazolin-4(3H)-one]	0.06 µM	
O=c1[nH]cnc2c(O)cc(-c3cnc4ccccn34)cc12 [Example 86, 8-Hydroxy-6-(imidazo[1,2-a]pyridin-3-yl)quinazolin-4(3H)-one]	0.03 µM	
O=c1[nH]cnc2c(O)cc(-c3ccccc3CCCCN3CCCC3)cc12 [Example 248, 8-Hydroxy-6-(2-(4-(pyrrolidin-1-yl)butyl)phenyl)quinazolin-4(3H)-one]	0.1 µM	
O=c1[nH]cnc2c(O)cc(Br)c(F)c12 [Example 196, 6-Bromo-5-fluoro-8-hydroxyquinazolin-4(3H)-one]	0.12 µM	
O=c1[nH]cnc2c(O)cc(-c3ccccc3N3CCOCC3)cc12 [Example 224, 8-Hydroxy-6-(2-morpholinophenyl)quinazolin-4(3H)-one]		0.22 µM
Nc1c(-c2ccc(F)cc2)cc(O)c2nc[nH]c(=O)c12 [Example 253, 5-Amino-6-(4-fluorophenyl)-8-hydroxyquinazolin-4(3H)-one hydrobromide]	0.1 µM	
COCc1nc(C)sc1-c1cc(O)c2nc[nH]c(=O)c2c1 [Example 46, 8-Hydroxy-6-(4-(methoxymethyl)-2-methylthiazol-5-yl)quinazolin-4(3H)-one]	0.01 µM	
COCc1ccccc1-c1cc(O)c2nc[nH]c(=O)c2c1 [Example 220, 8-Hydroxy-6-(2-(methoxymethyl)phenyl)quinazolin-4(3H)-one]	0.02 µM	
CN(C)S(=O)(=O)c1ccccc1-c1cc(O)c2nc[nH]c(=O)c2c1 [Example 250, 2-(8-Hydroxy-4-oxo-3,4-dihydro-quinazolin-6-yl)-N,N-dimethyl-benzenesulfonamide]	1.14 µM	
O=c1[nH]cnc2c(O)cc(C3=CCCCC3)cc12 [Example 186, 6-Cyclohexenyl-8-hydroxyquinazolin-4(3H)-one]	0.03 µM	
Cn1nc(C(F)(F)F)cc1-c1cc(O)c2nc[nH]c(=O)c2c1 [Example 154, 8-Hydroxy-6-(2-methyl-5-trifluoromethyl-2H-pyrazol-3-yl)-3H-quinazolin-4-one]	0.02 µM	
Cc1ccc(C)c2c1C=C(c1cc(O)c3nc[nH]c(=O)c3c1)CC2 [Example 19, 6-(5,8-dimethyl-3,4-dihydro-naphthalen-2-yl)-8-hydroxy-3H-quinazolin-4-one]	0.08 µM	
O=c1[nH]cnc2c(O)cc(-c3ccc(F)cc3)c(-c3cccc(C(F)(F)F)c3)c12 [Example 53, 6-(4-Fluorophenyl)-8-hydroxy-5-(3-(trifluoromethyl)phenyl)quinazolin-4(3H)-one]	0.02 µM	
O=c1[nH]cnc2c(O)cc(-c3ccccc3COCCN3CCCC3)cc12 [Example 238, 8-Hydroxy-6-(2-((2-(pyrrolidin-1-yl)ethoxy)methyl)phenyl)quinazolin-4(3H)-one]	0.03 µM	
CC(C)N1CCc2c(cccc2-c2cc(O)c3nc[nH]c(=O)c3c2)C1 [Example 108, 8-Hydroxy-6-(2-isopropyl-1,2,3,4-tetrahydroisoquinolin-5-yl)quinazolin-4(3H)-one 2,2,2-trifluoroacetate]	0.08 µM	
O=c1[nH]cnc2c(O)cc(-c3ccc(F)cc3)c(F)c12 [Example 195, 5-Fluoro-6-(4-fluorophenyl)-8-hydroxyquinazolin-4(3H)-one]	0.01 µM	
CN1CCN(C(=O)c2ccccc2-c2cc(O)c3nc[nH]c(=O)c3c2)CC1 [Example 193, 8-Hydroxy-6-[2-(4-methyl-piperazine-1-carbonyl)-phenyl]-3H-quinazolin-4-one]	1.28 µM	
O=c1[nH]cnc2c(O)cc(-c3ccc(O)cc3)cc12 [Example 129, 8-Hydroxy-6-(4-hydroxyphenyl)quinazolin-4(3H)-one]		0.03 µM

SMILES	IC50 [1]	IC50 (IC50, COMT-fluorescence assay)
O=c1[nH]cnc2c(O)cc(-c3ccccc3OC(F)(F)F)cc12 [Example 145, 8-Hydroxy-6-(2-trifluoromethoxy-phenyl)-3H-quinazolin-4-one]	0.07 µM	
O=c1[nH]cnc2c(O)cc(-c3ccccc3S(=O)(=O)N3CCCCC3)cc12 [Example 251, 8-Hydroxy-6-[2-(piperidine-1-sulfonyl)-phenyl]-3H-quinazolin-4-one]	0.74 µM	
O=c1[nH]cnc2c(O)cc(-c3ccc4c(c3)OCC4)cc12 [Example 25, 6-(2,3-Dihydrobenzofuran-6-yl)-8-hydroxyquinazolin-4(3H)-one]		0.02 µM
O=c1[nH]cnc2c(O)ccc(-c3ccc(F)cc3)c12 [Example 151, 5-(4-Fluorophenyl)-8-hydroxyquinazolin-4(3H)-one]	0.16 µM	
O=C(c1cccc(-c2cc(O)c3nc[nH]c(=O)c3c2)c1)N1CCC(F)(F)CC1 [Example 199, 6-[3-(4,4-Difluoro-piperidine-1-carbonyl)-phenyl]-8-hydroxy-3H-quinazolin-4-one]	0.02 µM	
O=c1[nH]cnc2c(O)c(Cl)c(-c3ccc(F)cc3)cc12 [Example 245, 7-Chloro-6-(4-fluorophenyl)-8-hydroxyquinazolin-4(3H)-one]	0.73 µM	
CN(C)CCc1cccc(-c2cc(O)c3nc[nH]c(=O)c3c2)c1 [Example 247, 6-(3-(2-(Dimethylamino)ethyl)phenyl)-8-hydroxyquinazolin-4(3H)-one]		0.05 µM
Cc1nnc(-c2cc(O)c3nc[nH]c(=O)c3c2)s1 [Example 83, 8-Hydroxy-6-(5-methyl-1,3,4-thiadiazol-2-yl)quinazolin-4(3H)-one]	0.06 µM	
O=c1[nH]cnc2c(O)cc(CCc3ccccc3)cc12 [Example 16, 8-Hydroxy-6-phenethylquinazolin-4(3H)-one]	0.56 µM	
CCN(CC)C(=O)c1ccc(-c2c(-c3ccc(F)cc3)cc(O)c3nc[nH]c(=O)c23)cc1 [Example 55, N,N-Diethyl-4-(6-(4-fluorophenyl)-8-hydroxy-4-oxo-3,4-dihydroquinazolin-5-yl)benzamide]	0.01 µM	
O=C(c1ccccc1)c1ccccc1-c1cc(O)c2nc[nH]c(=O)c2c1 [Example 99, 6-(2-Benzoylphenyl)-8-hydroxyquinazolin-4(3H)-one]	0.1 µM	
COCc1cc(C(=O)N2CCN(C)CC2)ccc1-c1cc(O)c2nc[nH]c(=O)c2c1 [Example 231, 8-Hydroxy-6-[2-methoxymethyl-4-(4-methyl-piperazine-1-carbonyl)-phenyl]-3H-quinazolin-4-one; compound with formic acid]	0.01 µM	
O=c1[nH]cnc2c(O)cc(-c3cc(Cl)ccc3Cl)cc12 [Example 37, 6-(2,5-Dichlorophenyl)-8-hydroxyquinazolin-4(3H)-one]		0.03 µM
Cc1ccc(C(O)c2cc(O)c3nc[nH]c(=O)c3c2)cc1 (stereo not drawn) [Example 65, 8-Hydroxy-6-(hydroxy(p-tolyl)methyl)quinazolin-4(3H)-one]	4.83 µM	
Cc1cc(-c2cc(O)c3nc[nH]c(=O)c3c2)c(C)s1 [Example 165, 6-(2,5-Dimethylthiophen-3-yl)-8-hydroxyquinazolin-4(3H)-one]	0.03 µM	
O=c1[nH]cnc2c(O)cc(Cc3ccccc3F)cc12 [Example 11, 6-(2-Fluorobenzyl)-8-hydroxyquinazolin-4(3H)-one]	1.25 µM	
Cn1nccc1-c1cc(O)c2nc[nH]c(=O)c2c1 [Example 181, 8-Hydroxy-6-(1-methyl-1H-pyrazol-5-yl)quinazolin-4(3H)-one]	0.02 µM	
O=c1[nH]cnc2c(O)cc(-c3cscn3)cc12 [Example 91, 8-Hydroxy-6-(thiazol-4-yl)quinazolin-4(3H)-one]	0.1 µM	
